Assay: mn = molality of the nth substance listed, in mol/kg
Conditions: 101 kPa, Liquid, Alternating current cell with electrodes

CCCCCCCC[N+](C)(C)CCCCCC[N+](C)(C)CCCCCCCC.[Br-].[Br-] + O
Conditions	electrical conductivity [S/m]
293.15 K, m1 = 0.1245	0.9968
298.15 K, m1 = 0.00419	0.07905
298.15 K, m1 = 0.00827	0.1464
298.15 K, m1 = 0.01224	0.2076
298.15 K, m1 = 0.0161	0.2647
298.15 K, m1 = 0.01987	0.3161
298.15 K, m1 = 0.02353	0.3644
298.15 K, m1 = 0.02711	0.4098
298.15 K, m1 = 0.03059	0.4515
298.15 K, m1 = 0.03399	0.4914
298.15 K, m1 = 0.0373	0.5292
298.15 K, m1 = 0.04053	0.5645
298.15 K, m1 = 0.04369	0.5979
298.15 K, m1 = 0.04677	0.6299
298.15 K, m1 = 0.04978	0.6602
298.15 K, m1 = 0.05272	0.6887
298.15 K, m1 = 0.05559	0.7156
298.15 K, m1 = 0.0584	0.7419
298.15 K, m1 = 0.06114	0.7666
298.15 K, m1 = 0.06383	0.7898
298.15 K, m1 = 0.06645	0.812
298.15 K, m1 = 0.06902	0.833
298.15 K, m1 = 0.07154	0.8526
298.15 K, m1 = 0.074	0.8713
298.15 K, m1 = 0.07641	0.8887
298.15 K, m1 = 0.07877	0.9051
298.15 K, m1 = 0.08108	0.9203
298.15 K, m1 = 0.08334	0.9348
298.15 K, m1 = 0.08556	0.9485
298.15 K, m1 = 0.08773	0.9616
298.15 K, m1 = 0.08987	0.9739
298.15 K, m1 = 0.09196	0.9852
298.15 K, m1 = 0.09401	0.9959
298.15 K, m1 = 0.09602	1.006
298.15 K, m1 = 0.09799	1.016
298.15 K, m1 = 0.09992	1.025
298.15 K, m1 = 0.1018	1.033
298.15 K, m1 = 0.1037	1.042
298.15 K, m1 = 0.1055	1.05
298.15 K, m1 = 0.1073	1.058
298.15 K, m1 = 0.1091	1.066
298.15 K, m1 = 0.1108	1.073
298.15 K, m1 = 0.1125	1.08
298.15 K, m1 = 0.1142	1.087
298.15 K, m1 = 0.1158	1.094
298.15 K, m1 = 0.1174	1.1
298.15 K, m1 = 0.119	1.107
298.15 K, m1 = 0.1206	1.112
298.15 K, m1 = 0.1221	1.118

Reference: the NIST ThermoML archive (doi:10.1021/je500804j)
